Reference: the NIST ThermoML archive (doi:10.1016/j.fluid.2007.03.030)

Key:
[1] = Liquid; for mass density: 298.15 K, 101.33 kPa; for vapor or sublimation pressure: Ebulliometric method (Recirculating still)
[2] = refractive index (Na D-line) (dimensionless); conditions: 298.15 K; 101.33 kPa; Liquid; Standard Abbe refractometry

CCCO [propan-1-ol]
Conditions	mass density [kg/m3]	refractive index
[1]	799.62	–
[2]	–	1.3836

Conditions	vapor or sublimation pressure [kPa]
[1], 369.75 K	101.3

CCCOCCC [dipropyl ether]
Conditions	mass density [kg/m3]	refractive index
[1]	741.81	–
[2]	–	1.3784

Conditions	vapor or sublimation pressure [kPa]
[1], 363.16 K	101.3

CCOCCO [2-ethoxyethan-1-ol]
Conditions	mass density [kg/m3]	refractive index
[1]	925.38	–
[2]	–	1.4062

[1]
Conditions	vapor or sublimation pressure [kPa]
345.63 K	9.97
349.72 K	11.98
353.3 K	13.98
356.42 K	15.98
359.27 K	17.98
363.08 K	20.96
365.34 K	22.97
367.46 K	24.98
370.33 K	27.95
373 K	30.94
375.49 K	33.97
378.51 K	37.93
381.26 K	41.98
383.78 K	45.88
386.12 K	49.91
388.87 K	54.89
391.39 K	59.83
393.83 K	64.82
396.01 K	69.65
398.1 K	74.57
400.12 K	79.47
402.11 K	84.74
403.97 K	89.84
405.76 K	94.91
407.95 K	101.3
